Laboratory results as given in patent publication US7910623B2, “Synthesis of scabronines and analogues thereof” (Sloan-Kettering Institute for Cancer Research, priority 2008, dated 2011).
“Also recorded” adds a separate entry of the source. Like-named read-outs stand apart in the source and are kept apart here.

Legend:
[1] = test system: 1321N1 human astroglial cells; details: cited from earlier work
[2] = test system: rat pheochromocytoma cells (PC-12); details: cited from earlier work
1321N1 human glial cells = test: Biosynthesis and secretion of neurotrophic factors from 1321N1 cells treated with compound; type: cell-based; details: 30 μM, 48 hours
Description: (§1) The 1321N1 human astrocytoma cells were cultured in Dulbecco's modified Eagles's medium (DMEM) supplemented with 2 mM L-Glutamine and 10% fetal bovine serum (FBS). PC-12 cells were grown in F-12K medium supplemented with 15% horse serum and 2.5% FBS. For compound treatment, 1321N1 cells were incubated with compounds 2 and 8 at 30 μM for 48 hours in DMEM medium. The resulting conditioned media from the 1321N1 cells were used to culture PC-12 cell for induction of PC-12 neurite outgrowth. After 3 days incubation, PC-12 cells were washed with phosphate-buffered saline (PBS) and fixed with 4% paraformaldeyde. Neurites were observed under a phase-contrast ECLIPSE TE2000-S Nikon microscope.

PC-12 cells = test: Neurite outgrowth of PC-12 cells cultured in compound-conditioned 1321N1 medium; type: cell-based, rat; details: 1321N1 medium conditioned with compound at 30 μM for 48 hours, PC-12 3 days; for neurite outgrowth of PC-12 cells: vs DMSO control
Description: as §1
The differentiation of PC-12 cells was scored as follows: cells without neurites were scored 0; cells with neurites as long as one cell body diameter were scored 1; cells with neurites 2-3 times longer than their cell body diameter were scored 2; and cells with neurites that were extremely long or forming a network were scored 3. The mean of differentiation scores were obtained from 200 cells (4 wells) under the phase-contrast microscope. Data are expressed as means±S.E.M (standard error of mean). Values represent the Means±S.E.M. for four wells.

Structure (SMILES)	production and excretion of nerve growth factor (NGF) [1]	production and excretion of nerve growth factor (NGF) ([1]; listed as scabronine G)	neuronal differentiation of PC-12 cells [2]	biosynthesis and secretion of neurotrophic factors (1321N1 human glial cells)	neurite outgrowth of PC-12 cells compared with compound 2 or purified NGF (50 ng/mL) (PC-12 cells)	neurite outgrowth of PC-12 cells (PC-12 cells)
CC(C)C1=C2[C@H]3CC=C(C=O)CC(=O)[C@]3(C)CC[C@@]2(C(=O)O)CC1 [Compound 1, Scabronine G]	induce the production and excretion of nerve growth factor (NGF)	induces the production and excretion of nerve growth factor (NGF)	dramatic neuronal differentiation			
COC(=O)[C@]12CCC(C(C)C)=C1[C@H]1CC=C(C=O)CC(=O)[C@]1(C)CC2 [Compound 2, Scabronine G Methyl Ester]			dramatic neuronal differentiation	effectively enhanced the biosynthesis and secretion of neurotrophic factors	comparable to those produced by direct exposure of PC-12 cells to purified NGF; also recorded: same degree of neurite outgrowth as that of 50 ng/mL of NGF	significant neurite outgrowth; also recorded: significantly induced neurite outgrowth
COC(=O)[C@]12CCC(C(C)C)=C1[C@H]1CCC(C=O)=CC(=O)[C@]1(C)CC2 [Compound 8]					greater activity as evidenced by increased neurite length; also recorded: comparable to those produced by direct exposure of PC-12 cells to purified NGF; also recorded: greater potency than compound 2	significantly induced neurite outgrowth
